From PubChem BioAssay (NCI)
Where “and” joins values, the source holds several entries; their conditions need not be identical. Equal values may be shown once.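 Results reflect a 48-hour exposure of cells in 96-well plates to compound at five concentrations. GI50 marks 50% less growth. The concentration for full growth arrest is given as TGI.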

What was measured:
Experiment in all cases: DTP human tumour cell line panel, 48 h
T-47D breast = system: T-47D breast
IGROV1 ovarian = system: IGROV1 ovarian
SNB-75 CNS = system: SNB-75 CNS
U251 CNS = system: U251 CNS
OVCAR-8 ovarian = system: OVCAR-8 ovarian
EKVX NSCLC = system: EKVX NSCLC
HCT-116 colon = system: HCT-116 colon
HOP-62 NSCLC = system: HOP-62 NSCLC

| SMILES | GI50 (T-47D breast) | TGI (T-47D breast) | GI50 (IGROV1 ovarian) | TGI (IGROV1 ovarian) | GI50 (SNB-75 CNS) | TGI (SNB-75 CNS) | GI50 (U251 CNS) | TGI (U251 CNS) | GI50 (OVCAR-8 ovarian) | TGI (OVCAR-8 ovarian) | GI50 (EKVX NSCLC) | TGI (EKVX NSCLC) | GI50 (HCT-116 colon) | TGI (HCT-116 colon) | GI50 (HOP-62 NSCLC) | TGI (HOP-62 NSCLC) |
| --- | --- | --- | --- | --- | --- | --- | --- | --- | --- | --- | --- | --- | --- | --- | --- | --- |
| Cc1ccc(-c2c3c([nH]c(=O)c2C#N)-c2cc(F)ccc2OC3)cc1 | 80.4 µM | > 100 µM | 52.3 µM | > 100 µM | > 100 µM | > 100 µM | 46.2 µM | > 100 µM | > 100 µM | > 100 µM | 95.5 µM | > 100 µM | – | – | – | – |
| C[C@]12CC[C@H](O)CC1=CC[C@@H]1[C@@H]2CC[C@]2(C)C(c3cccnc3)=CC[C@@H]12 | > 100 µM | > 100 µM | > 100 µM | > 100 µM | 7.69 µM | > 48.7 µM | 12.3 µM | > 100 µM | 29.5 µM | > 100 µM | 6.08 µM | > 100 µM | 19.2 µM | > 100 µM | 18.4 µM | > 100 µM |
| Nc1ccn(C2O[C@H](CO)[C@@H](O)[C@@H]2O)c(=O)n1 (stereo partly drawn) | – | > 100 µM | – | > 100 µM | 41.5 µM | > 100 µM | – | > 100 µM | 53.8 µM | > 100 µM | – | > 100 µM | 24.2 µM | > 100 µM | 64.3 µM | > 100 µM |
| O=NN(Cc1ccc(Cl)cc1)C(C(=O)O)c1ccccc1 (stereo not drawn) | – | > 100 µM | – | > 100 µM | – | > 100 µM | – | > 100 µM | – | > 100 µM | – | > 100 µM | – | > 100 µM | – | > 100 µM |
| CC1=C(CCCNS(C)(=O)=O)C2=C(C)C3(CC3)[C@@](C)(O)C(=O)C2=C1 | 0.563 µM | 6.02 µM | 0.259 µM | 1.15 µM | 0.342 µM | 1.67 µM | 2.32 µM | > 100 µM | 0.518 µM | 5.36 µM | 2.31 µM | 7.72 µM | 0.863 µM | > 100 µM | 0.421 µM | 2.33 µM |
| O=c1oc2ccc(F)cc2c(=O)n1-c1ccc(F)cc1F | 2.28 µM | 7.08 µM | 3.01 µM | > 100 µM | 1.58 µM | 5.43 µM | 3.26 µM | 38.8 µM | 3.39 µM | 91.6 µM | 2.54 µM | 9.79 µM | 2.86 µM | 9.6 µM | 2.39 µM | 8.05 µM |
| COc1cccc(-c2cc(=O)c3cc(N(C)C)ccc3[nH]2)c1 | – | – | 0.0892 µM and 0.0423 µM and 0.0174 µM | > 100 µM | 0.0271 µM and 0.00869 µM | > 100 µM | 0.0182 µM and 0.00594 µM | – | – | 94.6 nM [middle of 4 runs] | – | – | 0.0155 µM and 0.00433 µM | – | – | > 100 µM |
| CN(C)CCNc1cc(-c2ccccc2)nc2ccccc12 | 8.79 µM | 37.2 µM | 6.57 µM | 35.1 µM | 9.57 µM | 23.4 µM | 3.48 µM | 11.2 µM | 4.1 µM | 22 µM | – | – | 3.75 µM | 18.8 µM | 6.02 µM | 32.9 µM |
| O=C1/C(=C/c2ccc(Cl)cc2Cl)N=C(c2ccccc2)N1Cc1ccco1 | – | – | 18.6 µM | 51 µM | – | – | 20.5 µM | 40.5 µM | 20.5 µM | 48.4 µM | 27.3 µM | 75 µM | 20.7 µM | 47.1 µM | 18.4 µM | 38.9 µM |
| COc1ccc2c(c1)c(-c1nc(-c3cn(C)c4ncccc34)cs1)cn2CCCN1CCCCC1 | 1.83 µM | 4.28 µM | 1.74 µM | 3.46 µM | 1.34 µM | 2.72 µM | 1.81 µM | 3.23 µM | – | – | 1.67 µM | 3.17 µM | 1.68 µM | 3.05 µM | – | – |
| CN1CCN(Cc2ccc(NC(=O)c3cncc(C#Cc4cnc(N)c5ccc(C#N)cc45)c3)cc2C(F)(F)F)CC1 | 0.247 µM | 2.03 µM | – | – | 0.123 µM | 0.876 µM | 0.0235 µM | 0.846 µM | 0.141 µM | 1.32 µM | 0.185 µM | 6.13 µM | 0.0254 µM | 0.672 µM | 0.0439 µM | 0.927 µM |
| O=C(CI)NC1Oc2ccccc2-c2oc(=O)c(-c3ccccc3)cc21 (stereo not drawn) | 1.79 µM | 4.44 µM | – | – | 1.54 µM | 2.94 µM | 1.73 µM | 3.22 µM | 1.79 µM | 4.47 µM | – | – | – | – | 1.87 µM | 3.81 µM |
| Cc1ccc2c(c1)C(=O)/C(=C/c1ncc([N+](=O)[O-])n1C)O2 | 20.4 µM | 76.5 µM | 1.96 µM | > 23.7 µM | 3.14 µM | 22.8 µM | 1.93 µM | 5.32 µM | 0.481 µM | 7 µM | – | – | 0.282 µM | 0.886 µM | 5.79 µM | 16.9 µM |
| N#CSCC1CC(O)(c2ccccc2)C(c2ccccc2)C(c2ccc(Cl)cc2)O1 (stereo not drawn) | 1.07 µM | 3.53 µM | 2 µM | 3.74 µM | 1.55 µM | 4.28 µM | 1.58 µM | 3.12 µM | 1.78 µM | 3.83 µM | – | – | 0.569 µM | 1.99 µM | 2.08 µM | 3.96 µM |
| Cc1ccc(CS/C(=C\c2ccc([N+](=O)[O-])cc2)C(=O)c2ccc(F)cc2)cc1 | 4.53 µM | 22.4 µM | 4.49 µM | 31.3 µM | 19.2 µM | 71.8 µM | 1.67 µM | 3.1 µM | 3.42 µM | 19.4 µM | 4.72 µM | 24 µM | – | – | 11.5 µM | 29.2 µM |
| O=C1c2cccc(NCCN=Cc3cc(O)ccc3O)c2C(=O)c2c(NCCN=Cc3cc(O)ccc3O)cccc21 | 2.35 µM | 7.35 µM | 1.19 µM | 4.59 µM | – | – | 0.739 µM | 2.56 µM | 0.884 µM | 3.21 µM | 1.8 µM | 5.77 µM | – | – | 1.28 µM | 4.06 µM |
| COc1cc(/C=C/c2cc(/C=C/c3ccc(O)c(OC)c3)n(-c3ccccc3)n2)ccc1O | 0.645 µM | 2.6 µM | 0.532 µM | 4.02 µM | – | – | – | – | 0.466 µM | 3.55 µM | 1.12 µM | 3.7 µM | – | – | 0.404 µM | 1.52 µM |
| Cc1nn(CN2CCN(C)CC2)c(=S)n1/N=C/c1cccc2ccccc12 | 17.6 µM | 48.2 µM | 19.4 µM | 55.1 µM | 11.1 µM | 38.1 µM | – | – | 19.1 µM | 37 µM | 31.8 µM | > 100 µM | 18 µM | 35.6 µM | 20 µM | 42.3 µM |
